Test results: the supplement of paper PMC13380429

Columns and labels:
Conditions in all cases: 72 h
HepG2 [1] = experiment: drug sensitivity score (DSS) for viability; higher = more toxic; extreme values may be limits of the assay
Calu-3 [2] = experiment: as above
Caco-2 [3] = experiment: as above
U2OS [4] = experiment: as above
HepG2 [5] = experiment: cell viability relative to DMSO; higher = less toxic
Calu-3 [6] = experiment: as above
Caco-2 [7] = experiment: as above
U2OS [8] = experiment: as above
HepG2 [9] = experiment: relative viability EC50 (midpoint between 100% and the lowest measured viability); higher = less toxic
Calu-3 [10] = experiment: as above
Caco-2 [11] = experiment: as above
U2OS [12] = experiment: as above
Vero E6 [13] = experiment: drug sensitivity score (DSS) for viability; higher = more toxic; extreme values may be limits of the assay
Vero E6 [14] = experiment: cell viability relative to DMSO; higher = less toxic

| Structure (SMILES) | drug sensitivity score (HepG2 [1]) | drug sensitivity score (Calu-3 [2]) | drug sensitivity score (Caco-2 [3]) | drug sensitivity score (U2OS [4]) | cell viability (HepG2 [5]; 1 nM) [%] | cell viability (HepG2 [5]; 10 nM) [%] | cell viability (HepG2 [5]; 100 nM) [%] | cell viability (HepG2 [5]; 1000 nM) [%] | cell viability (HepG2 [5]; 10000 nM) [%] | cell viability (Calu-3 [6]; 1 nM) [%] | cell viability (Calu-3 [6]; 10 nM) [%] | cell viability (Calu-3 [6]; 100 nM) [%] | cell viability (Calu-3 [6]; 1000 nM) [%] | cell viability (Calu-3 [6]; 10000 nM) [%] | cell viability (Caco-2 [7]; 1 nM) [%] | cell viability (Caco-2 [7]; 10 nM) [%] | cell viability (Caco-2 [7]; 100 nM) [%] | cell viability (Caco-2 [7]; 1000 nM) [%] | cell viability (Caco-2 [7]; 10000 nM) [%] | cell viability (U2OS [8]; 1 nM) [%] | cell viability (U2OS [8]; 10 nM) [%] | cell viability (U2OS [8]; 100 nM) [%] | cell viability (U2OS [8]; 1000 nM) [%] | cell viability (U2OS [8]; 10000 nM) [%] | relative viability EC50 (HepG2 [9]) [µM] | relative viability EC50 (Calu-3 [10]) [µM] | relative viability EC50 (Caco-2 [11]) [µM] | relative viability EC50 (U2OS [12]) [µM] | drug sensitivity score (Vero E6 [13]) | cell viability (Vero E6 [14]; 1 nM) [%] | cell viability (Vero E6 [14]; 10 nM) [%] | cell viability (Vero E6 [14]; 100 nM) [%] | cell viability (Vero E6 [14]; 1000 nM) [%] | cell viability (Vero E6 [14]; 10000 nM) [%] |
| --- | --- | --- | --- | --- | --- | --- | --- | --- | --- | --- | --- | --- | --- | --- | --- | --- | --- | --- | --- | --- | --- | --- | --- | --- | --- | --- | --- | --- | --- | --- | --- | --- | --- | --- |
| CNC1CCCN(c2c(F)cc3c(=O)c(C(=O)O)cn(C4CC4)c3c2OC)C1 (stereo not drawn) [balofloxacin] | 0 | 0 | 0 | 0 | 114 | 97.5 | 93.1 | 104 | 104 | 104 | 94.8 | 101 | 97.7 | 102 | 105 | 98.3 | 98.4 | 93.3 | 99.9 | 113 | 102 | 97.5 | 103 | 93.2 | > 10 | > 10 | > 10 | > 10 |  |  |  |  |  |  |
| c1ccc(C(NCc2cccnc2)(c2ccccc2)c2ccccc2)cc1 [UCL-2077] | 0 | 0 | 0 | 0 | 97.4 | 104 | 97.3 | 92.6 | 94.6 | 96.7 | 86.1 | 89.6 | 94.2 | 94.8 | 101 | 103 | 96.7 | 103 | 91.4 | 96.9 | 98.5 | 101 | 106 | 103 | > 10 | > 10 | > 10 | > 10 |  |  |  |  |  |  |
| CC(C)Cc1ccc(C(C)C(=O)NO)cc1 (stereo not drawn) [ibuproxam] | 0 | 0 |  | 0 |  |  |  |  |  |  |  |  |  |  |  |  |  |  |  |  |  |  |  |  |  |  |  |  | 0 |  |  |  |  |  |
| N=C(N)c1ccc(OCCCCCOc2ccc(C(=N)N)cc2)cc1 [pentamidine] | 13.9 | 0 | 1.9 | 1.8 | 104 | 97.5 | 105 | 22.5 | 18.3 | 94.7 | 104 | 104 | 96 | 94.5 | 90.1 | 93.4 | 92.2 | 93.9 | 71.7 | 105 | 105 | 101 | 96.3 | 71.5 | 0.39 | > 10 |  |  | 3.4 | 107 | 65.4 | 92.6 | 79.8 | 82.9 |
| O=C(Nc1nc2cccc(-c3ccc(CN4CCS(=O)(=O)CC4)cc3)n2n1)C1CC1 [filgotinib] | 2.3 | 0 | 0 |  | 100 | 99.1 | 96.4 | 102 | 53.4 | 95.7 | 105 | 98.2 | 87.5 | 97.4 | 111 | 104 | 93.2 | 95.7 | 96.5 |  |  |  |  |  |  | > 10 | > 10 |  |  |  |  |  |  |  |
| COC(=O)C1=CO[C@@H](O[C@@H]2O[C@H](CO)[C@@H](O)[C@H](O)[C@H]2O)[C@@H]2C(CO)=CC[C@H]12 [geniposide] | 0 | 0 | 0 | 0 | 104 | 95.5 | 106 | 114 | 92.4 | 84.8 | 98.2 | 91.2 | 96.4 | 98.4 | 99.6 | 94.5 | 93.5 | 95.9 | 93.9 | 93.9 | 99.4 | 94.9 | 99.5 | 99 | > 10 | > 10 | > 10 | > 10 |  |  |  |  |  |  |
| Cc1nc(=O)c2cc(CN(C)c3ccc(C(=O)N[C@@H](CCC(=O)O)C(=O)O)s3)ccc2[nH]1 [raltitrexed] | 10.5 | 2 | 13.4 | 0 | 111 | 104 | 70.7 | 60.7 | 65.1 | 103 | 104 | 87.4 | 92.6 | 85.8 | 91.2 | 99 | 64.2 | 59.9 | 50.1 | 99.1 | 105 | 100 | 97.4 | 95.8 |  | > 10 |  | > 10 | 10.7 | 98.8 | 101 | 66.1 | 62.9 | 66.6 |
| CC(=O)O[C@H]1C[C@@]2(C)[C@@H](C[C@@H](O)[C@H]3[C@@]4(C)CC[C@@H](O)[C@@H](C)[C@@H]4CC[C@@]32C)/C1=C(\CCC=C(C)C)C(=O)O [fusidic-acid] |  | 0.3 | 0 | 0 |  |  |  |  |  | 96 | 109 | 93.7 | 93.5 | 86.1 | 103 | 116 | 89.6 | 104 | 99.5 | 98.8 | 104 | 99.6 | 106 | 100 |  | > 10 | > 10 | > 10 |  |  |  |  |  |  |
| CCN(CCCOc1ccc2c(Nc3cc(CC(=O)Nc4cccc(F)c4)[nH]n3)ncnc2c1)CCOP(=O)(O)O [barasertib] | 6 | 0 | 0.4 | 0 | 93.4 | 94.7 | 70.7 | 82.9 | 75 | 112 | 94.2 | 102 | 92.2 | 91.3 | 99.4 | 99.7 | 79.1 | 102 | 82.9 | 101 | 101 | 98 | 100 | 89.7 |  | > 10 | > 10 | > 10 | 1.9 | 94.3 | 96.9 | 101 | 93.7 | 74.2 |
| N[C@H](Cc1cc(I)c(Oc2ccc(O)c(I)c2)c(I)c1)C(=O)O [liothyronine-(isomer)] | 0 |  | 0 | 0 | 109 | 99.7 | 107 | 102 | 105 |  |  |  |  |  | 99.7 | 92.9 | 100 | 104 | 92.7 | 101 | 99.9 | 96.8 | 102 | 96 |  |  |  |  | 0 | 98.8 | 92.9 | 93.1 | 90.7 | 91.1 |
| CCOC(=O)CSCCC1NC(C(=O)O)CS1 (stereo not drawn) [letosteine] | 0 | 0 | 0 | 0 | 80.5 | 96.4 | 98.7 | 95.6 | 92.9 | 97.6 | 97.1 | 116 | 96.9 | 101 | 90.8 | 80.7 | 97.4 | 97.9 | 75.5 | 101 | 102 | 107 | 99.6 | 103 | > 10 | > 10 | > 10 | > 10 | 1.1 | 75.4 | 102 | 74.4 | 98.3 | 93.3 |
| C[C@H]1O[C@H](O[C@H]2[C@H](O)[C@@H](O)[C@@H](O[C@H]3[C@H](O)[C@@H](O)C(O)O[C@@H]3CO)O[C@@H]2CO)[C@H](O)[C@@H](O)[C@@H]1N[C@H]1C=C(CO)[C@@H](O)[C@H](O)[C@H]1O (stereo partly drawn) [acarbose] | 0 | 0 |  |  |  |  |  |  |  |  |  |  |  |  |  |  |  |  |  |  |  |  |  |  |  |  |  |  | 0 |  |  |  |  |  |
| O=C(O)c1cc(=O)[nH]c(=O)[nH]1 [orotic-acid] | 0 | 0 | 0 | 0 | 106 | 117 | 98.6 | 106 | 100 | 103 | 98.7 | 97.6 | 99.6 | 100 | 105 | 94.8 | 92.6 | 80 | 102 | 102 | 101 | 104 | 97.7 | 99.4 | > 10 | > 10 | > 10 | > 10 |  |  |  |  |  |  |
| O=c1[nH]c(=O)c2ccccc2o1 [carsalam] | 0 | 0 | 0 | 0 | 96 | 100 | 103 | 98.1 | 101 | 89.6 | 93.5 | 104 | 106 | 108 | 99.5 | 95.4 | 92.5 | 104 | 98.8 | 98.9 | 102 | 97.3 | 102 | 103 | > 10 | > 10 | > 10 | > 10 |  |  |  |  |  |  |
| COc1ccc(C2(CNC(=O)c3ccc(NC(=O)c4ccco4)cc3)CCOCC2)cc1 [JW-55] | 0 |  | 0 | 0 | 100 | 117 | 94.9 | 102 | 89.3 |  |  |  |  |  | 101 | 91.6 | 97.8 | 92.1 | 93.6 | 103 | 95.9 | 97.8 | 95.2 | 90.8 | > 10 |  | > 10 | > 10 | 1.6 | 103 | 108 | 97.3 | 102 | 62.6 |
| C[C@]1(Cn2ccnn2)[C@H](C(=O)O)N2C(=O)C[C@H]2S1(=O)=O [tazobactam] | 0 | 0 | 0 | 0 | 107 | 102 | 97.4 | 113 | 107 | 93.2 | 98.7 | 91.6 | 94.3 | 105 | 81.7 | 96.4 | 91.3 | 94.6 | 85.4 | 95.4 | 102 | 98.9 | 100 | 95.6 | > 10 | > 10 | > 10 | > 10 |  |  |  |  |  |  |
